The structures appear in SMILES notation. Like-named read-outs stand apart in the source and are kept apart here.

The values that follow come from patent publication US20240270821A1, “GIP/GLP1/GCG TRI-RECEPTOR AGONISTS AND USES THEREOF” (priority 2023, published 2024).

Assay type in all cases: cell-based
Assay [1] concerns the target T1, hGIPR (Homo sapiens, UniProt P48546).
T1 sequence (P48546 22-466): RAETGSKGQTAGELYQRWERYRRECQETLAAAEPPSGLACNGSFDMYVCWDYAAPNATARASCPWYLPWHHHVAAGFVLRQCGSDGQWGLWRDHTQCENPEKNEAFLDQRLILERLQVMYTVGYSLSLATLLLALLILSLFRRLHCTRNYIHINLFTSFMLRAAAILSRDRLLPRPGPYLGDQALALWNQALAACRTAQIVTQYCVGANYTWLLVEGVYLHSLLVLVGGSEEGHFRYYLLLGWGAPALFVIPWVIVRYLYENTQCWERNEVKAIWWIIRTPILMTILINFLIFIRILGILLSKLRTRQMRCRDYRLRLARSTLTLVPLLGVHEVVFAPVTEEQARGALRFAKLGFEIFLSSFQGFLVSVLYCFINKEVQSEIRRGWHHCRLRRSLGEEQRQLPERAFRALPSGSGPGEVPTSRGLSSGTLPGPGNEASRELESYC
Description: Functional cAMP activity in the presence of 1% HSA.

Assay [2] concerns the target T2, hGLP-1R (Homo sapiens, UniProt P43220). Kind of assay: Functional cAMP activity in the presence of 1% HSA.
For a further assay, the target named is human GcgR (Homo sapiens, UniProt P47871). Kind of assay: Functional cAMP activity in the presence of 1% HSA.
For assay [3], the target named is T1, hGIPR. Kind of assay: Functional cAMP activation in the presence of 0.1% casein (no HSA).
Assay [4] deals with T2, hGLP-1R. The assay is described as above.
The target in a further assay is hGcgR (Homo sapiens, UniProt P47871). The description is as above.
The target of another assay is human GLP1-R (Homo sapiens, UniProt P43220). Description: GLP1-R internalization assay in HEK293 cells. The settings on record: for Internalization % TOP: normalized to maximum concentration of GLP-1 (100%).
Where [5] appears, read: read-out: cAMP Rel EC50, hGLP-1R.
Setting [6] is: in the presence of 0.1% casein (no HSA), geometric mean, read-out: Relative cAMP EC50, hGIPR.
The mark [7] stands for this setting: in the presence of 0.1% casein (no HSA), geometric mean, read-out: Relative cAMP EC50, hGLP-1R.
Setting [8] is: in the presence of 0.1% casein (no HSA), geometric mean, read-out: Relative cAMP EC50, hGcgR.
The mark [9] stands for this setting: HEK293 cells expressing SNAP-GLP-1R, read-out: GLP1R Internalization EC50.
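For Relative cAMP EC50, hGIPR in this document: intracellular cAMP rise after 30 min at 37 °C read by HTRF against a standard curve, scaled between buffer alone (0%) and top control ligand concentration (100%), four-parameter fit.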
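For Relative cAMP EC50, hGLP-1R in this document: intracellular cAMP rise after 30 min at 37 °C read by HTRF, normalized between buffer only (0%) and maximal control ligand (100%), four-parameter variable-slope fit.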
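For Relative cAMP EC50, hGcgR in this document: intracellular cAMP rise after 30 min at 37 °C, read by HTRF against a cAMP standard curve, scaled from buffer only (0%) to maximal control ligand response (100%).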

hGcgR, sequence (P47871 26-477): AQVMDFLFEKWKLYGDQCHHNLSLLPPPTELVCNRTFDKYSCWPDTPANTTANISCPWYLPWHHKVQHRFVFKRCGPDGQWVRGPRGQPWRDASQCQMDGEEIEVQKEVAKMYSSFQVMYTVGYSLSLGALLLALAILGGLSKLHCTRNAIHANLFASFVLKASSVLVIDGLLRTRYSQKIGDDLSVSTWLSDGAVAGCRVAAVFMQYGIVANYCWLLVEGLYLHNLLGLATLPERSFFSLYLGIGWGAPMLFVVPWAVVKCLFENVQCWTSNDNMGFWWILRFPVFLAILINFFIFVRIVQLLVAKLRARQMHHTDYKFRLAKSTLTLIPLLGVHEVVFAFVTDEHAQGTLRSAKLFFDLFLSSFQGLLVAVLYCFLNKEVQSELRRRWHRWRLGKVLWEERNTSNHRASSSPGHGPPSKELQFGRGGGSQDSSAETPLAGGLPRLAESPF
human GcgR, sequence (P47871 26-477): as above
human GLP1-R, sequence (P43220 24-463): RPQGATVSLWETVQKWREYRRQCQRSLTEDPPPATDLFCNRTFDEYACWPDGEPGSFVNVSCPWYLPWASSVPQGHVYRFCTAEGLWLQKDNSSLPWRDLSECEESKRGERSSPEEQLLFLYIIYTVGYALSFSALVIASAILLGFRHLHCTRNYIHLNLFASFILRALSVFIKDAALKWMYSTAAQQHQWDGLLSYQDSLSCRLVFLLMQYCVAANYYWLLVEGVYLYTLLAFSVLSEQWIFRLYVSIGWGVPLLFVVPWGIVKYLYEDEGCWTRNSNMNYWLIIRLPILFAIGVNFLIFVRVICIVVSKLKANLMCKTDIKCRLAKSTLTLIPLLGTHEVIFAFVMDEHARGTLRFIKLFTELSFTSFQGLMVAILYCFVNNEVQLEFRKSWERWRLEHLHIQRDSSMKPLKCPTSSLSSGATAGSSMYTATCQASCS
T2 sequence (P43220 24-463): as above

As for `CC[C@H](C)[C@H](NC(=O)[C@H](Cc1ccccc1)NC(=O)[C@H](C)NC(=O)C(C)(C)NC(=O)[C@H](CCC(N)=O)NC(=O)[C@H](C)NC(=O)[C@H](CCCCNC(=O)COCCOCCNC(=O)CC[C@H](NC(=O)CCCCCCCCCCCCCCCCC(=O)O)C(=O)O)NC(=O)[C@H](CCCCN)NC(=O)[C@H](CC(=O)O)NC(=O)[C@H](CC(C)C)NC(=O)[C@](C)(CC(C)C)NC(=O)[C@H](CCCCN)NC(=O)[C@H](CO)NC(=O)[C@H](Cc1ccccc1)NC(=O)[C@H](CC(=O)O)NC(=O)[C@H](CO)NC(=O)[C@@H](NC(=O)[C@H](Cc1ccccc1)NC(=O)[C@@H](NC(=O)CNC(=O)[C@H](CCC(N)=O)NC(=O)C(C)(C)NC(=O)[C@@H](N)Cc1ccc(O)cc1)[C@@H](C)O)[C@@H](C)O)C(=O)N[C@@H](CCC(=O)O)C(=O)N[C@@H](Cc1ccc(O)cc1)C(=O)N[C@@H](CC(C)C)C(=O)N[C@@H](CC(C)C)C(=O)N[C@@H](C)C(=O)NCC(=O)NCC(=O)N1CCC[C@H]1C(=O)N[C@@H](CO)C(=O)N[C@@H](CO)C(=O)NCC(=O)N[C@@H](CCC(=O)O)C(=O)N1CCC[C@H]1C(=O)N1CCC[C@H]1C(=O)N1CCC[C@H]1C(=O)N[C@@H](CO)C(=O)N[C@@H](CCC(=O)O)C(=O)NCC(N)=O` [Example 22], the EC50 came out at 81 nM at hGIPR [1] (read-out: cAMP Rel EC50, hGIPR); 592 nM on hGLP-1R [2] (setting [5]); 532 nM at human GcgR (read-out: cAMP Rel EC50, hGcgR); 0.246 nM at hGIPR [3] (setting [6]); 2.94 nM on hGLP-1R [4] (setting [7]); 5.42 nM on hGcgR (setting [8]). The EC50 on human GLP1-R (setting [9]) stood at 41.9 nM. Besides, at human GLP1-R, the “Internalization % TOP” value turned out to be 64.7%.
Consider `CC[C@H](C)[C@H](NC(=O)[C@H](Cc1ccccc1)NC(=O)[C@H](C)NC(=O)C(C)(C)NC(=O)[C@H](CCC(N)=O)NC(=O)[C@H](C)NC(=O)[C@H](CCCCNC(=O)COCCOCCNC(=O)COCCOCCNC(=O)CC[C@H](NC(=O)CCCCCCCCCCCCCCCCCCC(=O)O)C(=O)O)NC(=O)[C@H](CCCCN)NC(=O)[C@H](CC(=O)O)NC(=O)[C@H](CC(C)C)NC(=O)[C@](C)(CC(C)C)NC(=O)[C@H](CCCCN)NC(=O)[C@H](CO)NC(=O)[C@H](Cc1ccccc1)NC(=O)[C@H](CC(=O)O)NC(=O)[C@H](CO)NC(=O)[C@@H](NC(=O)[C@H](Cc1ccccc1)NC(=O)[C@@H](NC(=O)CNC(=O)[C@H](CCC(N)=O)NC(=O)C(C)(C)NC(=O)[C@@H](N)Cc1ccc(O)cc1)[C@@H](C)O)[C@@H](C)O)C(=O)N[C@@H](CCC(=O)O)C(=O)N[C@@H](Cc1ccc(O)cc1)C(=O)N[C@@H](CC(C)C)C(=O)N[C@@H](CC(C)C)C(=O)N[C@@H](CCC(=O)O)C(=O)NC(C)(C)C(=O)NCC(=O)N1CCC[C@H]1C(=O)N[C@@H](CO)C(=O)N[C@@H](CO)C(=O)NCC(=O)N[C@@H](C)C(=O)N1CCC[C@H]1C(=O)N1CCC[C@H]1C(=O)N1CCC[C@H]1C(=O)NCC(=O)N[C@@H](CCC(=O)O)C(=O)NCC(N)=O` [Example 55], for which the EC50 came to 27.8 nM at hGIPR [1]; 479 nM at hGLP-1R [2]; 960 nM on human GcgR; 0.0856 nM on hGIPR [3]; 1.96 nM at hGLP-1R [4]; 5.2 nM on hGcgR. The same compound gave an EC50 on human GLP1-R of 79.5 nM. In addition, the “Internalization % TOP” value on human GLP1-R came to 70.7%.
Turning to `CC[C@H](C)[C@H](NC(=O)[C@H](Cc1ccccc1)NC(=O)[C@H](C)NC(=O)C(C)(C)NC(=O)[C@H](CCC(N)=O)NC(=O)[C@H](C)NC(=O)[C@H](CCCCNC(=O)COCCOCCNC(=O)CC[C@H](NC(=O)CCCCCCCCCCCCCCCCC(=O)O)C(=O)O)NC(=O)[C@H](CCCCN)NC(=O)[C@H](CC(=O)O)NC(=O)[C@H](CC(C)C)NC(=O)[C@](C)(CC(C)C)NC(=O)[C@H](CCCN)NC(=O)[C@H](CO)NC(=O)[C@H](Cc1ccccc1)NC(=O)[C@H](CC(=O)O)NC(=O)[C@H](CO)NC(=O)[C@@H](NC(=O)[C@H](Cc1ccccc1)NC(=O)[C@@H](NC(=O)CNC(=O)[C@H](CCC(N)=O)NC(=O)C(C)(C)NC(=O)[C@@H](N)Cc1ccc(O)cc1)[C@@H](C)O)[C@@H](C)O)C(=O)N[C@@H](CCC(=O)O)C(=O)N[C@@H](Cc1ccc(O)cc1)C(=O)N[C@@H](CC(C)C)C(=O)N[C@@H](CC(C)C)C(=O)N[C@@H](CCC(=O)O)C(=O)N[C@H](C)C(=O)NCC(=O)N1CCC[C@H]1C(=O)N[C@@H](CO)C(=O)N[C@@H](CO)C(=O)NCC(=O)N[C@@H](C)C(=O)N1CCC[C@H]1C(=O)N1CCC[C@H]1C(=O)N1CCC[C@H]1C(=O)N[C@@H](CO)C(=O)NCC(=O)N[C@@H](CCC(=O)O)C(N)=O` [Example 129], the EC50 on hGIPR [1] (read-out: cAMP Rel EC50, hGIPR) came out at 24.3 nM; at hGLP-1R [2] (setting [5]) it was 284 nM; on human GcgR (read-out: cAMP Rel EC50, hGcgR) it was 510 nM; on hGIPR [3] (setting [6]), 0.134 nM; at hGLP-1R [4] (setting [7]), 1.87 nM; at hGcgR (setting [8]), 2.01 nM. For the same compound, at human GLP1-R (setting [9]), the EC50 came to 22.5 nM. Moreover, on human GLP1-R, the “Internalization % TOP” value amounted to 40.6%.
Turning to `CC[C@H](C)[C@H](NC(=O)[C@H](Cc1ccccc1)NC(=O)[C@H](C)NC(=O)C(C)(C)NC(=O)[C@H](CCC(N)=O)NC(=O)[C@H](C)NC(=O)[C@H](CCCCNC(=O)COCCOCCNC(=O)COCCOCCNC(=O)CC[C@H](NC(=O)CCCCCCCCCCCCCCCCC(=O)O)C(=O)O)NC(=O)[C@H](CCCCN)NC(=O)[C@H](CC(=O)O)NC(=O)[C@H](CC(C)C)NC(=O)[C@](C)(CC(C)C)NC(=O)[C@H](CCCN)NC(=O)[C@H](CO)NC(=O)[C@H](Cc1ccccc1)NC(=O)[C@H](CC(=O)O)NC(=O)[C@H](CO)NC(=O)[C@@H](NC(=O)[C@H](Cc1ccccc1)NC(=O)[C@@H](NC(=O)CNC(=O)[C@H](CCC(N)=O)NC(=O)C(C)(C)NC(=O)[C@@H](N)Cc1ccc(O)cc1)[C@@H](C)O)[C@@H](C)O)C(=O)N[C@@H](CCC(=O)O)C(=O)N[C@@H](Cc1ccc(O)cc1)C(=O)N[C@@H](CC(C)C)C(=O)N[C@@H](CC(C)C)C(=O)N[C@@H](CCC(=O)O)C(=O)NC(C)(C)C(=O)NCC(=O)N[C@@H](CCC(=O)O)C(=O)N[C@@H](CO)C(=O)N[C@@H](CO)C(=O)NCC(=O)N[C@@H](C)C(=O)N1CCC[C@H]1C(=O)N1CCC[C@H]1C(=O)N1CCC[C@H]1C(=O)N[C@@H](CO)C(=O)NCC(=O)N[C@@H](CCC(=O)O)C(N)=O` [Example 185], the EC50 at hGIPR [1] (read-out: cAMP Rel EC50, hGIPR) amounted to 21.1 nM; on hGLP-1R [2] (setting [5]), 502 nM; at human GcgR (read-out: cAMP Rel EC50, hGcgR) it was 504 nM; at hGIPR [3] (setting [6]) it was 0.123 nM; on hGLP-1R [4] (setting [7]), 5.46 nM; at hGcgR (setting [8]) it was 3.5 nM. Moreover, at human GLP1-R (setting [9]), the EC50 was found to be 144 nM. For the same compound, the “Internalization % TOP” value on human GLP1-R is recorded as 43.7%.
Turning to `CC[C@H](C)[C@H](NC(=O)[C@H](Cc1ccccc1)NC(=O)[C@H](C)NC(=O)C(C)(C)NC(=O)[C@H](CCC(N)=O)NC(=O)[C@H](C)NC(=O)[C@H](CCCCNC(=O)CC[C@H](NC(=O)CC[C@H](NC(=O)CC[C@H](NC(=O)CCCCCCCCCCCCCCCCC(=O)O)C(=O)O)C(=O)O)C(=O)O)NC(=O)[C@H](CCCCN)NC(=O)[C@H](CC(=O)O)NC(=O)[C@H](CC(C)C)NC(=O)[C@](C)(CC(C)C)NC(=O)[C@H](CCCN)NC(=O)[C@H](CO)NC(=O)[C@H](Cc1ccccc1)NC(=O)[C@H](CC(=O)O)NC(=O)[C@H](CO)NC(=O)[C@@H](NC(=O)[C@H](Cc1ccccc1)NC(=O)[C@@H](NC(=O)CNC(=O)[C@H](CCC(N)=O)NC(=O)C(C)(C)NC(=O)[C@@H](N)Cc1ccc(O)cc1)[C@@H](C)O)[C@@H](C)O)C(=O)N[C@@H](CCC(=O)O)C(=O)N[C@@H](Cc1ccc(O)cc1)C(=O)N[C@@H](CC(C)C)C(=O)N[C@@H](CC(C)C)C(=O)N[C@@H](CCC(=O)O)C(=O)N[C@H](C)C(=O)NCC(=O)N1CCC[C@H]1C(=O)N[C@@H](CO)C(=O)N[C@@H](CO)C(=O)NCC(=O)N[C@@H](C)C(=O)N1CCC[C@H]1C(=O)N1CCC[C@H]1C(=O)N1CCC[C@H]1C(=O)N[C@@H](CO)C(=O)NCC(=O)N[C@H](C(N)=O)[C@@H](C)O` [Example 205], the EC50 on hGIPR [1] (read-out: cAMP Rel EC50, hGIPR) is 24.4 nM; on hGLP-1R [2] (setting [5]) it was 234 nM; at human GcgR (read-out: cAMP Rel EC50, hGcgR), 397 nM; on hGIPR [3] (setting [6]), 0.16 nM; on hGLP-1R [4] (setting [7]), 2.71 nM; at hGcgR (setting [8]), 8.98 nM. For the same compound, the EC50 on human GLP1-R (setting [9]) stood at 49.4 nM. For the same compound, the “Internalization % TOP” value on human GLP1-R was 67.7%.
